Measured values published in PubChem BioAssay (NCI).
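Assay format: 96-well plates, 48-hour exposure. GI50 marks 50% less growth. The concentration for full growth arrest is given as TGI.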

Legend:
Assay in all cases: NCI-60 cell line screen, 48 h
IGROV1 ovarian = test system: IGROV1 ovarian
PC-3 prostate = test system: PC-3 prostate
OVCAR-5 ovarian = test system: OVCAR-5 ovarian
MOLT-4 leukemia = test system: MOLT-4 leukemia
SF-295 CNS = test system: SF-295 CNS
RPMI-8226 leukemia = test system: RPMI-8226 leukemia
A549 NSCLC = test system: A549 NSCLC
SNB-19 CNS = test system: SNB-19 CNS
HL-60(TB) leukemia = test system: HL-60(TB) leukemia
OVCAR-8 ovarian = test system: OVCAR-8 ovarian
SN12C renal = test system: SN12C renal
HCT-15 colon = test system: HCT-15 colon
TK-10 renal = test system: TK-10 renal
HT29 colon = test system: HT29 colon
786-0 renal = test system: 786-0 renal
HS 578T breast = test system: HS 578T breast
SK-MEL-5 melanoma = test system: SK-MEL-5 melanoma
UACC-257 melanoma = test system: UACC-257 melanoma
DU-145 prostate = test system: DU-145 prostate
SF-268 CNS = test system: SF-268 CNS
NCI-H23 lung = test system: NCI-H23 lung
MDA-MB-435 = test system: MDA-MB-435
HCC-2998 colon = test system: HCC-2998 colon
LOX IMVI melanoma = test system: LOX IMVI melanoma
NCI-H522 lung = test system: NCI-H522 lung
KM12 colon = test system: KM12 colon
K-562 leukemia = test system: K-562 leukemia
RXF 393 renal = test system: RXF 393 renal
HOP-92 NSCLC = test system: HOP-92 NSCLC
EKVX NSCLC = test system: EKVX NSCLC
CCRF-CEM leukemia = test system: CCRF-CEM leukemia
SK-MEL-28 melanoma = test system: SK-MEL-28 melanoma
U251 CNS = test system: U251 CNS
HCT-116 colon = test system: HCT-116 colon
SR leukemia = test system: SR leukemia
MCF7 breast = test system: MCF7 breast
MALME-3M melanoma = test system: MALME-3M melanoma
BT-549 breast = test system: BT-549 breast
UO-31 renal = test system: UO-31 renal
SNB-75 CNS = test system: SNB-75 CNS
NCI-H460 lung = test system: NCI-H460 lung
NCI-H226 lung = test system: NCI-H226 lung
CAKI-1 renal = test system: CAKI-1 renal
ACHN renal = test system: ACHN renal
COLO 205 colon = test system: COLO 205 colon
SW-620 colon = test system: SW-620 colon
OVCAR-4 ovarian = test system: OVCAR-4 ovarian
A498 renal = test system: A498 renal
M14 melanoma = test system: M14 melanoma
UACC-62 melanoma = test system: UACC-62 melanoma
T-47D breast = test system: T-47D breast
SK-OV-3 ovarian = test system: SK-OV-3 ovarian
HOP-62 NSCLC = test system: HOP-62 NSCLC
SF-539 CNS = test system: SF-539 CNS
MDA-MB-231 breast = test system: MDA-MB-231 breast
NCI/ADR-RES ovarian = test system: NCI/ADR-RES ovarian
OVCAR-3 ovarian = test system: OVCAR-3 ovarian
SK-MEL-2 melanoma = test system: SK-MEL-2 melanoma

Work on `Cn1ccnc1C(=O)/C=C/c1ccc(C(=O)Nc2ccc(F)cc2)cc1` yielded a GI50 (IGROV1 ovarian) of 1.24 µM, a TGI (IGROV1 ovarian) of 4.44 µM and a GI50 (PC-3 prostate) of 1.25 µM. For the same molecule, the TGI (PC-3 prostate) was > 50 µM, the GI50 (OVCAR-5 ovarian) was 1.54 µM and the TGI (OVCAR-5 ovarian) was 26.5 µM. For the same molecule, the GI50 (MOLT-4 leukemia) was 1.48 µM, the TGI (MOLT-4 leukemia) was > 50 µM and the GI50 (SF-295 CNS) was 1.82 µM. For the same molecule, the TGI (SF-295 CNS) was > 37.1 µM, the GI50 (RPMI-8226 leukemia) was 0.224 µM and the TGI (RPMI-8226 leukemia) was 1.54 µM. The GI50 (A549 NSCLC) was 1.41 µM, the TGI (A549 NSCLC) was > 50 µM and the GI50 (SNB-19 CNS) was 1.36 µM. The TGI (SNB-19 CNS) was 6.31 µM, the GI50 (HL-60(TB) leukemia) was 0.933 µM and the TGI (HL-60(TB) leukemia) was 3.12 µM. The GI50 (OVCAR-8 ovarian) was 1.49 µM, the TGI (OVCAR-8 ovarian) was > 50 µM and the GI50 (SN12C renal) was 1.37 µM. The TGI (SN12C renal) was > 50 µM, the GI50 (HCT-15 colon) was 0.274 µM and the TGI (HCT-15 colon) was 2.5 µM. It also gave a GI50 (TK-10 renal) of 1.51 µM, a TGI (TK-10 renal) of 7.49 µM and a GI50 (HT29 colon) of 0.877 µM. For the same molecule, the TGI (HT29 colon) was > 50 µM, the GI50 (786-0 renal) was 1.14 µM and the TGI (786-0 renal) was 3.14 µM. For the same molecule, the GI50 (HS 578T breast) was 1.66 µM, the TGI (HS 578T breast) was > 50 µM and the GI50 (SK-MEL-5 melanoma) was 1.49 µM. For the same molecule, the TGI (SK-MEL-5 melanoma) was 4.63 µM, the GI50 (UACC-257 melanoma) was 3.14 µM and the TGI (UACC-257 melanoma) was > 50 µM. The GI50 (DU-145 prostate) was 1.61 µM, the TGI (DU-145 prostate) was > 50 µM and the GI50 (SF-268 CNS) was 1.91 µM. The TGI (SF-268 CNS) was > 50 µM, the GI50 (NCI-H23 lung) was 1.3 µM and the TGI (NCI-H23 lung) was 5.36 µM. The GI50 (MDA-MB-435) was 1.59 µM, the TGI (MDA-MB-435) was 11 µM and the GI50 (HCC-2998 colon) was 0.915 µM. It also gave a TGI (HCC-2998 colon) of 2 µM, a GI50 (LOX IMVI melanoma) of 0.52 µM and a TGI (LOX IMVI melanoma) of 1.35 µM. It also gave a GI50 (NCI-H522 lung) of 1.17 µM, a TGI (NCI-H522 lung) of 4.7 µM and a GI50 (KM12 colon) of 0.481 µM. For the same molecule, the TGI (KM12 colon) was 2 µM, the GI50 (K-562 leukemia) was 0.163 µM and the TGI (K-562 leukemia) was > 50 µM. It also gave a GI50 (RXF 393 renal) of 0.78 µM, a TGI (RXF 393 renal) of 1.64 µM and a GI50 (HOP-92 NSCLC) of 1.31 µM. The TGI (HOP-92 NSCLC) was > 41 µM, the GI50 (EKVX NSCLC) was 2.2 µM and the TGI (EKVX NSCLC) was 20.8 µM. The GI50 (CCRF-CEM leukemia) was 0.853 µM, the TGI (CCRF-CEM leukemia) was > 50 µM and the GI50 (SK-MEL-28 melanoma) was 1.8 µM. It also gave a TGI (SK-MEL-28 melanoma) of 9.65 µM, a GI50 (U251 CNS) of 0.747 µM and a TGI (U251 CNS) of 2.71 µM. The GI50 (HCT-116 colon) was 0.343 µM, the TGI (HCT-116 colon) was 1.12 µM and the GI50 (SR leukemia) was 0.171 µM. For the same molecule, the TGI (SR leukemia) was 3.11 µM, the GI50 (MCF7 breast) was 0.472 µM and the TGI (MCF7 breast) was > 50 µM. The GI50 (MALME-3M melanoma) was 3.27 µM, the TGI (MALME-3M melanoma) was > 50 µM and the GI50 (BT-549 breast) was 0.667 µM. The TGI (BT-549 breast) was 4.22 µM, the GI50 (UO-31 renal) was 0.814 µM and the TGI (UO-31 renal) was 2.69 µM. It also gave a GI50 (SNB-75 CNS) of 0.919 µM, a TGI (SNB-75 CNS) of 16.8 µM and a GI50 (NCI-H460 lung) of 1.06 µM. The TGI (NCI-H460 lung) was 2.66 µM, the GI50 (NCI-H226 lung) was 1.51 µM and the TGI (NCI-H226 lung) was > 12.4 µM. The GI50 (CAKI-1 renal) was 1.07 µM, the TGI (CAKI-1 renal) was > 50 µM and the GI50 (ACHN renal) was 1.01 µM. The TGI (ACHN renal) was 2.11 µM, the GI50 (COLO 205 colon) was 1.47 µM and the TGI (COLO 205 colon) was 5.42 µM. For the same molecule, the GI50 (SW-620 colon) was 0.223 µM, the TGI (SW-620 colon) was 7.97 µM and the GI50 (OVCAR-4 ovarian) was 1.38 µM. The TGI (OVCAR-4 ovarian) was > 50 µM, the GI50 (A498 renal) was 1.05 µM and the TGI (A498 renal) was 3.53 µM. It also gave a GI50 (M14 melanoma) of 1.16 µM, a TGI (M14 melanoma) of 3.81 µM and a GI50 (UACC-62 melanoma) of 1.37 µM. The TGI (UACC-62 melanoma) was 4.86 µM, the GI50 (T-47D breast) was 1.24 µM and the TGI (T-47D breast) was > 50 µM. The GI50 (SK-OV-3 ovarian) was 2.55 µM, the TGI (SK-OV-3 ovarian) was > 50 µM and the GI50 (HOP-62 NSCLC) was 1.38 µM. The TGI (HOP-62 NSCLC) was > 16.4 µM, the GI50 (SF-539 CNS) was 0.851 µM and the TGI (SF-539 CNS) was 1.79 µM. For the same molecule, the GI50 (MDA-MB-231 breast) was 1.71 µM, the TGI (MDA-MB-231 breast) was > 50 µM and the GI50 (NCI/ADR-RES ovarian) was 1.25 µM. For the same molecule, the TGI (NCI/ADR-RES ovarian) was > 50 µM, the GI50 (OVCAR-3 ovarian) was 0.812 µM and the TGI (OVCAR-3 ovarian) was 4.28 µM. It also gave a GI50 (SK-MEL-2 melanoma) of 5.66 µM and a TGI (SK-MEL-2 melanoma) of 39.7 µM.
`Cc1ccc(SC2=C(N(C)C)C(=O)c3ccccc3C2=O)cc1` was tested, and the TGI (IGROV1 ovarian) was 17.6 µM, the TGI (PC-3 prostate) was 18.7 µM and the TGI (OVCAR-5 ovarian) was 40.3 µM. The TGI (MOLT-4 leukemia) was 12.4 µM, the TGI (SF-295 CNS) was 25.6 µM and the TGI (RPMI-8226 leukemia) was 11.7 µM. For the same molecule, the TGI (A549 NSCLC) was 30.2 µM, the TGI (SNB-19 CNS) was 29.6 µM and the TGI (HL-60(TB) leukemia) was 16.9 µM. The TGI (OVCAR-8 ovarian) was 6.44 µM, the TGI (SN12C renal) was 16.6 µM and the TGI (HCT-15 colon) was > 39.9 µM. For the same molecule, the TGI (TK-10 renal) was 21.6 µM, the TGI (HT29 colon) was 31 µM and the TGI (786-0 renal) was > 32.2 µM. For the same molecule, the TGI (HS 578T breast) was > 27.6 µM, the TGI (SK-MEL-5 melanoma) was 8.6 µM and the TGI (UACC-257 melanoma) was 15.6 µM. The TGI (DU-145 prostate) was 23 µM, the TGI (SF-268 CNS) was 18.4 µM and the TGI (NCI-H23 lung) was 10.4 µM. It also gave a TGI (MDA-MB-435) of 1.22 µM, a TGI (HCC-2998 colon) of 32.4 µM and a TGI (LOX IMVI melanoma) of 24.6 µM. For the same molecule, the TGI (NCI-H522 lung) was 10.5 µM, the TGI (KM12 colon) was 16.4 µM and the TGI (K-562 leukemia) was 7.68 µM. It also gave a TGI (RXF 393 renal) of 20.8 µM, a TGI (HOP-92 NSCLC) of 18.3 µM and a TGI (EKVX NSCLC) of 20.1 µM. It also gave a TGI (CCRF-CEM leukemia) of 17.5 µM, a TGI (SK-MEL-28 melanoma) of 25.8 µM and a TGI (U251 CNS) of 23.7 µM. It also gave a TGI (HCT-116 colon) of 7.26 µM, a TGI (SR leukemia) of 3.84 µM and a TGI (MCF7 breast) of 17.5 µM. It also gave a TGI (MALME-3M melanoma) of 18.4 µM, a TGI (BT-549 breast) of 26.6 µM and a TGI (UO-31 renal) of 21.9 µM. It also gave a TGI (SNB-75 CNS) of 43.5 µM, a TGI (NCI-H460 lung) of 18.5 µM and a TGI (NCI-H226 lung) of 25.8 µM. The TGI (CAKI-1 renal) was 9.73 µM, the TGI (ACHN renal) was 21.4 µM and the TGI (COLO 205 colon) was 51.5 µM. For the same molecule, the TGI (SW-620 colon) was 16.1 µM, the TGI (OVCAR-4 ovarian) was 24.8 µM and the TGI (A498 renal) was 50.3 µM. The TGI (M14 melanoma) was 16.4 µM, the TGI (UACC-62 melanoma) was 17.8 µM and the TGI (T-47D breast) was > 38 µM. It also gave a TGI (SK-OV-3 ovarian) of 41.9 µM, a TGI (HOP-62 NSCLC) of 23.6 µM and a TGI (SF-539 CNS) of 9.71 µM. For the same molecule, the TGI (MDA-MB-231 breast) was 20.1 µM, the TGI (NCI/ADR-RES ovarian) was 6.35 µM and the TGI (OVCAR-3 ovarian) was 2.96 µM. The TGI (SK-MEL-2 melanoma) was 23.5 µM.
